Measurements taken from patent publication US20240342198A1, “TREATMENT OF IR[…] SUBJECTS WITH AUTISM SPECTRUM DISORDERS WITH MODERATE TO SEVERE ANXIETY AND/OR SOCIAL AVOIDANCE” (ZYNERBA PHARMACEUTICALS, INC., priority 2021, published 2024).

What was measured:
[1] = system: patients with FXS and comorbid ASD; assay: Pooled placebo-controlled data: Week 12 change in ABC-C Irritability, 156 subjects; type: in vivo, human; settings: subgroup comparison
Text: The data collected from the studies presented herein, and other similar studies were pooled together and analyzed. […] The subjects had moderate to severe symptoms of ASD (ADOS-2, comparison score greater than, or equal to, 5). The data presented in Table 2 is the Week 12 change in ABC-C Irritability of all patients. In previous studies (such as presented in Example 1, Table 1) the data was enriched by removing the non-completers from the analysis and only presenting data from the completers.

[2] = system: children and adolescents with autism spectrum disorder; assay: BRIGHT study: open-label safety, tolerability and efficacy study of ZYN002 transdermal gel, 14 weeks; type: in vivo, human; settings: subgroup comparison
Protocol: An exploratory open-label safety, tolerability and efficacy study of Zygel™ ZYNO02 transdermal gel to 37 children and adolescents with autism spectrum disorder was conducted. The patient population (ages 4 through 17 years old) were predominantly moderate-to-severe ASD patients. ASD was confirmed by Diagnostic and Statistical Manual of Mental Disorders, 5th edition (DSM-5) diagnostic criteria to assess the safety and efficacy of ZYNO02 in treating ASD-related behaviors as measured by a variety of efficacy assessments. These included the Aberrant Behavior Checklist-Community (ABC-C); the Autism Diagnostic Observation Schedule®, 2nd Edition (ADOS-2); and the Parent Rated Anxiety Scale-Autism Spectrum Disorder (PRAS-ASD). ZYNO02 was administered to patients with moderate-to-severe symptoms of ASD as add-on therapy to their standard of care.
The majority of the patients were male (92%) with a mean age of 9.2 years. […] The majority of patients had moderate or severe ASD at baseline as measured by the ADOS®-2 comparison score (94%) and Diagnostic and Statistical Manual of Mental Disorders, 5th edition, severity levels (92%). […]
The trial evaluated multiple efficacy assessments, including the ABC-C, PRAS-ASD, Autism Parenting Stress Index, Autism Impact Measure (AIM), and Clinical Global Impression-Severity (CGI-S) and Improvement (CGI-I). […]

With `C=C(C)C1CCC(C)=CC1c1c(O)cc(CCCCC)cc1O` (centres unmarked) [CBD, 2-[3-methyl-6-(1-methylethenyl)-2-cyclohexen-1-yl]-5-pentyl-1,3-benzenediol] the “improvement in irritability, ABC-CFXS Social Avoidance score > 7 compared to ≤ 7” value [1] was “twice as much improvement in irritability” and the “improvement in irritability, PRAS score > 37 compared to ≤ 37” value [2] was “twice as much improvement in irritability”.
